{"source": "patent US20170252433A1", "about": "“PSMA-RELATED THERAPIES” (Memorial Sloan Kettering Cancer Center, priority 2014, published 2017)", "key": {"[1]": {"system": "LNCaP-wt xenografts", "experiment": "Photoacoustic imaging of tumor vascularization and oxygenation", "assay_type": "in vivo, male athymic, nude mice", "conditions": "0.4 mM, 100 μL retro-orbital injection daily", "protocol": "Male, athymic, nude mice (Harlan Laboratories, Indianapolis, Ind.) were implanted with LNCaP xenografts (3 million cells in 100 μL Matrigel). Immediately post xengraft implantation, the mice were treated daily iv with 2-PMPA (0.4 mM, 100 μL retro-orbital injection). Tumor vascularization and oxygenation was assessed 15 days after treatment commencements, using the Vevo LAZR small-animal photoacoustic imaging platform (Visualsonics, Toronto, ON, Canada).\nThe tumors used in the study had roughly the same size. […] (FIG. 6 a-b). […] (FIG. 6c)"}, "[2]": {"system": "LNCaP xenografts", "experiment": "In vivo chemotherapy, LNCaP xenografts", "set-up": "species or system male athymic, nude mice", "conditions": "0.4 mM, 100 μL retro-orbital injection daily from implantation", "protocol": "Male, athymic, nude mice (Harlan Laboratories, Indianapolis, Ind.) were implanted with LNCaP xenografts (3 million cells in 100 μL Matrigel) on each flank. Immediately post xengraft implantation, the mice were treated daily iv with 2-PMPA (0.4 mM, 100 μL retro-orbital injection). Tumor volume was assessed by measuring the tumor with microcalipers. Combination therapy was performed with male athymic, nude mice with LNCaP xenografts, which were treated daily post tumor detection. Chemotherapy was administered by iv (100 μL retro-orbital injection) with animals receiving either enzalutamide (0.15 mM), 2-PMPA (3 mM) or both compounds (0.15 mM enzalutamide and 3 mM 2-PMPA). Male athymic, nude mice with PC3-PSMA xenografts (3 million cells in 100 μL Matrigel) were treated with either vehicle (DMSO) or a combination of AZD8055 and XL184 (AZD8055 0.4 mM and XL184 8 μM 100 μL retro-orbital injection).\nTumor growth was examined using daily treatment of male athymic, nude mice with LNCaP xenografts on their flanks Each animal's flanks were injected with 3,000,000 cells in 100 μL matrigel, and the animals were immediately treated with 2-PMPA (0.4 mM, 100 μL retro-orbital injection). Tumor volume was assessed by measuring the tumor with microcalipers. […] In a different study, male athymic, nude mice with LNCaP xenografts were treated daily post tumor detection, with either enzalutamide (0.15 mM, 100 μL retro-orbital injection), 2-PMPA (3 mM, 100 μL retro-orbital injection) or both compounds (0.15 mM enzalutamide and 3 mM 2-PMPA, 100 μL retro-orbital injection). […] (FIG. 9c-d)."}, "[3]": {"system": "PSMA-expressing (LNCaP-PSMA+ve) and PSMA-negative (LNCaP-PSMA-ve) cells", "experiment": "Cell viability with ROS-generating drug Elesclomol (Alamar Blue)", "assay_type": "cell-based, human", "conditions": "2-PMPA 250 nM, 48 h; Elesclomol 250 nM; FIG. 8 C and D", "protocol": "Cell viability of (A) PSMA-expressing (LNCaP-PSMA+ve) and (B) PSMA-negative cells (LNCaP-PSMA-ve where PSMA expression was knocked down with shRNA) was determined via the fluorescence-based Alamar Blue method (λex=565 nm and λem=585 nm). Cell viability was assessed 48 h after drug administration with either vehicle (DMSO) or the ROS-generating drug Elesclomol (250 nM, Selleck Chemicals). […] The cells were treated for 48 h, and cell viability was determined with the Alamar Blue method."}, "[4]": {"system": "LNCaP, LNCaP-KD, PC3-PSMA and PC3-wt cells", "experiment": "In vitro chemotherapy, cell viability (Alamar blue)", "protocol": "Cells were seeded in a 96-well format (2,500 cells per well), and grown for 48 h. They were then treated with the following drugs at a final concentration of 200 nM: Doxorubicin, Taxol, AZD6244, BEZ235, Lapatinib, and Velcade (all purchased from Selleck Chemicals, Houston, Tex.). For combination therapy, cells were treated with 2-PMPA (5 μM final concentration). After overnight incubation in the presence of the drugs, cell viability was determined with the Alamar blue method according to the supplier's guidelines (Life Technologies, Carlsbad, Calif.)\nGiven that PSMA affects the phosphorylation status of multiple targets, it was investigated whether inhibition of PSMA can counteract resistance to various chemotherapeutics used in the clinic or under clinical trials. LNCaP and PCS3-PSMA cells were seeded at a density of 2,500 cells per well in a 96-well format, and after 48 hours growth the cells were treated with the drugs (Doxorubicin (Adriamycin; DNA intercalator), Taxol (Paclitaxel; microtubule stabilizer), AZD6244 (Selumetinib; MEK1 & ERK1/2 inhibitor), BEZ235 (Dactolisib; PI3K & mTOR inhibitor), Lapatinib (EGFR and ErbB2 inhibitor), or Velcade (Bortezomib; 20S proteasome inhibitor), 200 nM final concentration in 1×PBS) or with the drugs (200 nM final concentration) and 2-PMPA (5 μM final concentration). After overnight incubation, cell viability was assessed fluorimetrically with the Alamar blue method (Invitrogen), according to the supplier's protocol."}}}
{"smiles": "O=C(O)CCC(CP(=O)(O)O)C(=O)O", "note": "(stereo not shown) [2-PMPA]", "values": [{"measurement": "tumor total hemoglobin levels", "setting": "[1]; FIG. 6a-b", "value": "lower total hemoglobin levels"}, {"measurement": "tumor consumption of oxygen", "setting": "[1]; FIG. 6c", "value": "lower consumption of oxygen"}, {"measurement": "tumor oxygenation", "setting": "[1]; versus saline", "value": "lower tumor oxygenation"}, {"measurement": "tumor vascularization", "setting": "[1]; versus saline, FIG. 6a-b", "value": "lower tumor vascularization"}, {"measurement": "tumor size and growth", "setting": "[2]", "value": "smaller tumors that grew slowly"}, {"measurement": "tumor initiation", "setting": "[2]; FIG. 9a", "value": "did not affect tumor initiation"}, {"measurement": "animal survival", "setting": "[2]; FIG. 9b", "value": "extended the animals survival"}, {"measurement": "resistance to ROS-generating drug (cell viability)", "setting": "[3]", "value": "abrogates drug resistance and renders the cells susceptible to cell death"}, {"measurement": "effect of 2-PMPA on toxicity of chemotherapeutics (cell viability)", "setting": "[4]; PSMA-expressing cells, drugs 200 nM plus 2-PMPA 5 μM, overnight, FIG. 7a-d", "value": "enhanced the toxicity of all chemotherapeutics"}, {"measurement": "cytotoxic effect of the inhibitor alone", "setting": "[4]; for the study's time-course", "value": "no cytotoxic effect"}]}
